Two compounds from patent US5444155A, “Molecules with antibody combining sites that induce asymmetry” (The Scripps Research Institute, priority 1991, dated 1995) can be followed below.

In assay [1] the test system is monoclonal antibody (catalytic receptor) produced by hybridoma 37E8, ATCC HB 10868. Format: biochemical, mouse.
Assay [2] addresses T1, Butyl Cholinesterase EC 3.1.1.8, from horse serum (Sigma) (Equus caballus, UniProt P81908).
T1 construct: purchased Sigma Chemical Co., St. Louis
Kind of assay: Hydrolysis of Compound 1 by authentic butyl cholinesterase, assayed by gas chromatography. The class given is biochemical. On the procedure: The production of Compound 2 by a monoclonal antibody composition of this invention was assayed at a concentration of 10 μM monoclonal antibody and 1 mM Compound 1 in pH 8.0 ATE buffer (0.52M ACES, 0.52M Tris, 0.01M ethanolamine) at 37° C. The initial rate of hydrolysis of Compound 1 by the monoclonal antibodies produced by hybridoma 37E8 followed Michaelis-Menten kinetics (Table 1 hereinafter).
The conditions used for this study were as follows. Monoclonal antibodies produced by hybridoma 37E8 (10 μM) were added to a solution of 800 μM Compound 1 and 25 μM Compound C. Under these conditions, the substrate concentration was at saturation for the monoclonal antibody (4.5Km) and at approximately Km for either cholinesterase.
^b EC 3.1.1.8. From horse serum (Sigma Chemical Co., St. Louis),
All assays consisted of determining the amount of Compound 2 by gas chromatography analysis (Hewlett Packard 5890A, carbowax 30 m, 0.53 mm bore, capillary column) with ethyl levulinate as an internal standard.

The target of assay [3] is Acetyl Cholinesterase EC 3.1.1.7, Type VS, electric eel (Sigma) (Electrophorus electricus, UniProt O42275). Kind of assay: Hydrolysis of Compound 1 by authentic acetyl cholinesterase, assayed by gas chromatography.
Acetyl Cholinesterase EC 3.1.1.7, Type VS, electric eel (Sigma), sequence (O42275 24-633): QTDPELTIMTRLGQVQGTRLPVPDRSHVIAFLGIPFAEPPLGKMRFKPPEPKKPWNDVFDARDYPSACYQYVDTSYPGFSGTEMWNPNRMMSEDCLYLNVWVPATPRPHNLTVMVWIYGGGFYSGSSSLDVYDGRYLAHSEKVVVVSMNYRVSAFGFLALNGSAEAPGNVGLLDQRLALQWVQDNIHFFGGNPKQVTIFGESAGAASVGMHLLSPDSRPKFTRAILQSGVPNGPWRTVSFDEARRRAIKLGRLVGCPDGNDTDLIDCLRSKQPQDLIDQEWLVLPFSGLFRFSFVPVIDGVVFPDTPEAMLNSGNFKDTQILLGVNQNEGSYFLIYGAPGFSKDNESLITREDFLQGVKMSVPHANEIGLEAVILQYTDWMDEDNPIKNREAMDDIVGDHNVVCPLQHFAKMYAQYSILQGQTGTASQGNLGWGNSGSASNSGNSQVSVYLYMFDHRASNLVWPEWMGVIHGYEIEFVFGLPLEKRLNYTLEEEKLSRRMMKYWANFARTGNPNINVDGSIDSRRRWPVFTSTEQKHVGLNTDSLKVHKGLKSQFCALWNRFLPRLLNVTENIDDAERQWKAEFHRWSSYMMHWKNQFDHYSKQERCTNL

pKi: −log10 of the molar value. Where two headings read alike, the source gives them in different places.

T1 sequence (P81908 whole entry): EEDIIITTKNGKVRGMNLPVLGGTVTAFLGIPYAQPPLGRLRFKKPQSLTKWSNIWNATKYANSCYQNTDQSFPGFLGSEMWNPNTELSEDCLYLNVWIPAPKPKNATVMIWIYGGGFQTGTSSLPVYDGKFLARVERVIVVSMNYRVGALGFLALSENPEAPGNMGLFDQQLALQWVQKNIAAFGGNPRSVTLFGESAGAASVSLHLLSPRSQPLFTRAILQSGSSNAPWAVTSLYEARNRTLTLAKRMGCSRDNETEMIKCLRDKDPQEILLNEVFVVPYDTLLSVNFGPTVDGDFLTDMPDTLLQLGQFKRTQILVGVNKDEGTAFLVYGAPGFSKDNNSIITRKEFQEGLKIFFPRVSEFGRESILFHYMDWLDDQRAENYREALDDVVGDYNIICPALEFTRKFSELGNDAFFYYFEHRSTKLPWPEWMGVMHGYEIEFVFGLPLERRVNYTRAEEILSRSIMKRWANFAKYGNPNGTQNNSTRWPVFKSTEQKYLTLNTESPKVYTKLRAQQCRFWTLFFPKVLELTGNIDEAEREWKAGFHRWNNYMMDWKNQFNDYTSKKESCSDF

`CC(=O)O[C@@H]1C=C[C@H](OC(C)=O)C1` [Compound 1, cis-3,5-diactoxycyclopent-1-ene]: the “kcat (hydrolysis of Compound 1)” value in assay [1] (pH 8) came to 0.007. Also, the Michaelis-Menten constant (Km) in assay [1] (pH 8, read-out: Km (hydrolysis of Compound 1)) stood at 177 µM.
`CC(=O)O[C@H]1C=C[C@@H](OP(=O)(O)CCCCCC(=O)O)C1` [Compound C]: the “inhibition of the hydrolytic reaction by free Compound C” value in assay [1] is on record as “extensive inhibition”. Further, the pKi in assay [1] (read-out: Ki (free Compound C)) is 5.15; in assay [1] (read-out: ki (inhibition of hydrolysis of Compound 1 by free Compound C)) it was 5.15; in assay [2] (0.0117 units enzyme used, read-out: ki (hydrolysis of Compound 1, inhibitor Compound C)), 3.10; in assay [3], 3.20. Besides, the “inhibition by free Compound C” value is recorded as “no inhibition” in assay [2] (800 μM Compound 1, 25 μM Compound C) and “no inhibition” in assay [3].
